Columns and labels:
[1] = 101 kPa, Liquid
[2] = xn = mol fraction of the nth substance listed; conditions: 101 kPa, Liquid

CN1CCCC1=O [N-methylpyrrolidone]
[1]
Conditions | mass density [kg/m3] | viscosity [mPa·s]
303.15 K | 1023.47 | 1.554
313.15 K | 1014.55 | 1.332
323.15 K | 1005.66 | 1.16
333.15 K | 996.71 | 1.022
343.15 K | 987.75 | 0.908
353.15 K | 978.76 | 0.8127

CN1CCCC1=O [N-methylpyrrolidone] + C1CCCCC1
[2]
Conditions | mass density, 303.15 K [kg/m3] | mass density, 313.15 K [kg/m3] | mass density, 323.15 K [kg/m3] | mass density, 333.15 K [kg/m3] | viscosity, 303.15 K [mPa·s] | viscosity, 313.15 K [mPa·s] | viscosity, 323.15 K [mPa·s] | viscosity, 333.15 K [mPa·s]
x2 = 0 | 1023.47 | 1014.55 | 1005.66 | 996.71 | 1.554 | 1.332 | 1.16 | 1.022
x2 = 0.1157 | 989.9 | 980.96 | 972.02 | 963.06 | 1.394 | 1.206 | 1.056 | 0.931
x2 = 0.2275 | 958.38 | 949.41 | 940.41 | 931.37 | 1.28 | 1.106 | 0.965 | 0.854
x2 = 0.3355 | 928.85 | 919.78 | 910.71 | 901.57 | 1.194 | 1.032 | 0.9 | 0.791
x2 = 0.4398 | 901.35 | 892.21 | 883.02 | 873.78 | 1.132 | 0.973 | 0.843 | 0.739
x2 = 0.5409 | 875.71 | 866.43 | 857.14 | 847.77 | 1.073 | 0.92 | 0.791 | 0.692
x2 = 0.6386 | 851.53 | 842.17 | 832.77 | 823.29 | 1.011 | 0.866 | 0.746 | 0.648
x2 = 0.7332 | 828.73 | 819.29 | 809.79 | 800.2 | 0.953 | 0.813 | 0.699 | 0.608
x2 = 0.8249 | 807.41 | 797.92 | 788.36 | 778.69 | 0.895 | 0.76 | 0.655 | 0.573
x2 = 0.9138 | 787.37 | 777.85 | 768.22 | 758.49 | 0.843 | 0.72 | 0.623 | 0.544

CN1CCCC1=O [N-methylpyrrolidone] + Cc1ccccc1
[2]
Conditions | mass density [kg/m3] | viscosity [mPa·s]
303.15 K, x2 = 0 | 1023.47 | 1.554
303.15 K, x2 = 0.1071 | 1006.98 | 1.399
303.15 K, x2 = 0.2121 | 990.67 | 1.258
303.15 K, x2 = 0.3156 | 974.42 | 1.138
303.15 K, x2 = 0.4177 | 958.02 | 1.021
303.15 K, x2 = 0.5185 | 941.54 | 0.923
303.15 K, x2 = 0.6174 | 925 | 0.822
303.15 K, x2 = 0.7151 | 907.95 | 0.727
303.15 K, x2 = 0.8114 | 890.99 | 0.65
303.15 K, x2 = 0.9064 | 874.21 | 0.566
313.15 K, x2 = 0 | 1014.55 | 1.332
313.15 K, x2 = 0.1071 | 998.03 | 1.21
313.15 K, x2 = 0.2121 | 981.67 | 1.088
313.15 K, x2 = 0.3156 | 965.37 | 0.991
313.15 K, x2 = 0.4177 | 948.91 | 0.89
313.15 K, x2 = 0.5185 | 932.4 | 0.803
313.15 K, x2 = 0.6174 | 915.81 | 0.719
313.15 K, x2 = 0.7151 | 898.7 | 0.642
313.15 K, x2 = 0.8114 | 881.69 | 0.575
313.15 K, x2 = 0.9064 | 864.87 | 0.516
323.15 K, x2 = 0 | 1005.66 | 1.16
323.15 K, x2 = 0.1071 | 989.08 | 1.061
323.15 K, x2 = 0.2121 | 972.67 | 0.956
323.15 K, x2 = 0.3156 | 956.3 | 0.87
323.15 K, x2 = 0.4177 | 939.78 | 0.783
323.15 K, x2 = 0.5185 | 923.24 | 0.71
323.15 K, x2 = 0.6174 | 906.6 | 0.639
323.15 K, x2 = 0.7151 | 889.42 | 0.572
323.15 K, x2 = 0.8114 | 872.36 | 0.514
323.15 K, x2 = 0.9064 | 855.48 | 0.463
333.15 K, x2 = 0 | 996.71 | 1.022
333.15 K, x2 = 0.1071 | 980.08 | 0.932
333.15 K, x2 = 0.2121 | 963.63 | 0.844
333.15 K, x2 = 0.3156 | 947.17 | 0.766
333.15 K, x2 = 0.4177 | 930.61 | 0.695
333.15 K, x2 = 0.5185 | 914.01 | 0.632
333.15 K, x2 = 0.6174 | 897.3 | 0.57
333.15 K, x2 = 0.7151 | 880.06 | 0.514
333.15 K, x2 = 0.8114 | 862.94 | 0.463
333.15 K, x2 = 0.9064 | 845.99 | 0.418
343.15 K, x2 = 0 | 987.75 | 0.908
343.15 K, x2 = 0.1071 | 971.08 | 0.844
343.15 K, x2 = 0.2121 | 954.56 | 0.751
343.15 K, x2 = 0.3156 | 938.03 | 0.683
343.15 K, x2 = 0.4177 | 921.4 | 0.622
343.15 K, x2 = 0.5185 | 904.74 | 0.566
343.15 K, x2 = 0.6174 | 887.95 | 0.518
343.15 K, x2 = 0.7151 | 870.65 | 0.464
343.15 K, x2 = 0.8114 | 853.44 | 0.418
343.15 K, x2 = 0.9064 | 836.42 | 0.379
353.15 K, x2 = 0 | 978.76 | 0.8127
353.15 K, x2 = 0.1071 | 962 | 0.7651
353.15 K, x2 = 0.2121 | 945.42 | 0.6769
353.15 K, x2 = 0.3156 | 928.81 | 0.617
353.15 K, x2 = 0.4177 | 912.13 | 0.5616
353.15 K, x2 = 0.5185 | 895.4 | 0.513
353.15 K, x2 = 0.6174 | 878.51 | 0.464
353.15 K, x2 = 0.7151 | 861.11 | 0.422
353.15 K, x2 = 0.8114 | 843.83 | 0.381
353.15 K, x2 = 0.9064 | 826.71 | 0.347

CN1CCCC1=O [N-methylpyrrolidone] + c1ccccc1
[2]
Conditions | mass density, 303.15 K [kg/m3] | mass density, 313.15 K [kg/m3] | mass density, 323.15 K [kg/m3] | mass density, 333.15 K [kg/m3] | mass density, 343.15 K [kg/m3] | viscosity, 303.15 K [mPa·s] | viscosity, 313.15 K [mPa·s] | viscosity, 323.15 K [mPa·s] | viscosity, 333.15 K [mPa·s] | viscosity, 343.15 K [mPa·s]
x2 = 0 | 1023.47 | 1014.55 | 1005.66 | 996.71 | 987.75 | 1.554 | 1.332 | 1.16 | 1.022 | 0.908
x2 = 0.1239 | 1008.67 | 999.64 | 990.6 | 981.51 | 972.41 | 1.357 | 1.163 | 1.015 | 0.895 | 0.797
x2 = 0.2409 | 993.24 | 984.1 | 974.95 | 965.76 | 956.53 | 1.222 | 1.049 | 0.915 | 0.807 | 0.712
x2 = 0.3523 | 978.06 | 968.78 | 959.51 | 950.17 | 940.78 | 1.102 | 0.952 | 0.834 | 0.735 | 0.656
x2 = 0.4584 | 962.87 | 953.43 | 943.96 | 934.42 | 924.85 | 0.991 | 0.858 | 0.753 | 0.665 | 0.593
x2 = 0.5594 | 947.6 | 937.99 | 928.33 | 918.6 | 908.82 | 0.899 | 0.779 | 0.684 | 0.604 | 0.539
x2 = 0.6557 | 931.99 | 922.17 | 912.31 | 902.36 | 892.35 | 0.809 | 0.703 | 0.62 | 0.548 | 0.491
x2 = 0.7476 | 916.33 | 906.29 | 896.21 | 886.02 | 875.8 | 0.729 | 0.636 | 0.56 | 0.498 | 0.447
x2 = 0.8354 | 900.43 | 890.16 | 879.84 | 869.42 | 858.93 | 0.655 | 0.573 | 0.505 | 0.451 | 0.405
x2 = 0.9195 | 884.33 | 873.83 | 863.26 | 852.58 | 841.81 | 0.585 | 0.519 | 0.458 | 0.41 | 0.369

c1ccccc1 [benzene]
[1]
Conditions | mass density [kg/m3] | viscosity [mPa·s]
303.15 K | 868.21 | 0.561
313.15 K | 857.46 | 0.493
323.15 K | 846.65 | 0.436
333.15 K | 835.72 | 0.388
343.15 K | 824.87 | 0.345

c1ccccc1 [benzene] + CN1CCCC1=O
[2], x1 = 1
Conditions | mass density [kg/m3] | viscosity [mPa·s]
303.15 K | 868.21 | 0.561
313.15 K | 857.46 | 0.493
323.15 K | 846.65 | 0.436
333.15 K | 835.72 | 0.388
343.15 K | 824.87 | 0.345

C1CCCCC1 [cyclohexane] + CN1CCCC1=O
[2], x1 = 1
Conditions | mass density [kg/m3] | viscosity [mPa·s]
303.15 K | 769.1 | 0.821
313.15 K | 759.6 | 0.696
323.15 K | 749.98 | 0.598
333.15 K | 740.23 | 0.52

Cc1ccccc1 [toluene] + CN1CCCC1=O
[2], x1 = 1
Conditions | mass density [kg/m3] | viscosity [mPa·s]
303.15 K | 858.32 | 0.525
313.15 K | 848.92 | 0.47
323.15 K | 839.45 | 0.423
333.15 K | 829.93 | 0.385
343.15 K | 820.3 | 0.35
353.15 K | 810.54 | 0.323
